Reference: the NIST ThermoML archive (doi:10.1016/j.fluid.2014.09.014)

Test: refractive index (other wavelength) (dimensionless); xn = mol fraction of the nth substance listed
Details: 313.15 K, 101 kPa, Liquid, Standard Abbe refractometry

CC(C)OC(C)C [diisopropyl ether] + CC(C)O
refractive index
Details | Wavelength=435.8 nm | Wavelength=486.1 nm | Wavelength=546.1 nm | Wavelength=587.6 nm
x1 = 0.0277 | – | 1.37269 | 1.36987 | 1.3684
x1 = 0.0507 | – | 1.37262 | 1.3698 | 1.36833
x1 = 0.051 | – | 1.37256 | 1.36974 | 1.36828
x1 = 0.0717 | 1.37558 | 1.37221 | 1.36939 | 1.36792
x1 = 0.1528 | 1.3749 | 1.3715 | 1.36872 | 1.36724
x1 = 0.1553 | 1.3749 | 1.3715 | 1.36872 | 1.36724
x1 = 0.1938 | 1.37465 | 1.37126 | 1.36846 | 1.36699
x1 = 0.2029 | 1.37411 | 1.37068 | 1.36791 | 1.36645
x1 = 0.245 | 1.37358 | 1.37022 | 1.36743 | 1.36596
x1 = 0.297 | 1.37276 | 1.36938 | 1.36658 | 1.36512
x1 = 0.2973 | 1.37298 | 1.36959 | 1.36682 | 1.36535
x1 = 0.3068 | 1.37271 | 1.36934 | 1.36655 | 1.36509
x1 = 0.398 | 1.37134 | 1.36798 | 1.3652 | 1.36376
x1 = 0.4609 | 1.3706 | 1.36724 | 1.36445 | 1.36302
x1 = 0.5434 | 1.36967 | 1.36633 | 1.36354 | –
x1 = 0.6032 | 1.36891 | 1.36561 | 1.36281 | –
x1 = 0.6371 | 1.36856 | 1.36522 | 1.36243 | –
x1 = 0.701 | 1.36779 | 1.36447 | 1.36168 | –
x1 = 0.754 | 1.36737 | 1.36403 | 1.36126 | –
x1 = 0.791 | 1.36694 | 1.36363 | 1.36084 | –
x1 = 0.8296 | 1.36655 | 1.36322 | 1.36045 | –
x1 = 0.8864 | 1.36643 | 1.36308 | 1.36035 | –
x1 = 0.8903 | 1.36585 | 1.36252 | 1.35976 | –
x1 = 0.9113 | 1.3656 | 1.36228 | 1.35952 | –
x1 = 0.9547 | 1.36513 | 1.3618 | 1.35904 | –
x1 = 0.973 | 1.36481 | 1.36145 | 1.35868 | –
x1 = 0.9771 | 1.36465 | 1.36134 | 1.35856 | –
x1 = 1 | 1.36447 | 1.36119 | 1.35842 | –
